The results in this text go back to PubChem BioAssay AID466 (The Scripps Research Institute Molecular Screening Center, 2006).

SMILES strings stand for the structures. pEC50: −log10 of the molar value. Calls of active or inactive are those of the source. No rule for the calls is given here.

In the assay the target is Sphingosine 1-phosphate receptor 1 (Homo sapiens) (UniProt P21453). The assay is described as follows: S1P1 agonism potentiation – cell-based, potentiator mode, 60K MLSMR set, dose response (AID 466). The following applies: S1P1 cell assay, potentiation of agonist response.
Sphingosine 1-phosphate receptor 1 (Homo sapiens), sequence (P21453 whole entry, looked up): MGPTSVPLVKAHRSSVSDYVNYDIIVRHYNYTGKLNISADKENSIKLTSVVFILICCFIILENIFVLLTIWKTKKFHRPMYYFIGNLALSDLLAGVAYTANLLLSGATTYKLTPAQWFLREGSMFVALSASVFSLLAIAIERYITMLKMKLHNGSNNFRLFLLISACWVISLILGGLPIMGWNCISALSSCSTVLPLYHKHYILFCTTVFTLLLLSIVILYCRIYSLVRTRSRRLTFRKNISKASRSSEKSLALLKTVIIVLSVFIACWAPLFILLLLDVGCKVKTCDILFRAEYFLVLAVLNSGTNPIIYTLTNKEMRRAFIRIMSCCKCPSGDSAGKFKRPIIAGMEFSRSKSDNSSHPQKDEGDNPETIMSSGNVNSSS
In the case of `CC(C)c1ccc(OCc2nc(-c3ccccn3)no2)c(Br)c1`, the negative logarithm of the EC50 (pEC50) was 5.35.

With `Cc1nn(Cc2ccc(Cl)c(Cl)c2)c(C)c1NC(=O)c1cc(-c2ccco2)on1`, the pEC50 is 5.25.

For the molecule `c1ccc2c(c1)CCN(c1ncnc3c1[nH]c1ccccc13)C2`, the pEC50 is 5.93.

Turning to `COC(=O)CC1SC(=O)NC1=Nc1ccccc1` (stereo not given), the EC50 is > 95 µM (inactive).

With `Cc1[nH]nc2c1C1(C(=O)N(Cc3ccc(Cl)cc3)c3ccccc31)C(C#N)=C(N)O2` (stereo not given), the EC50 entry is “inactive”.

In the case of `CC1=C(C(=O)OCc2ccc3c(c2)OCO3)C(c2ccccc2)NC(=O)N1` (stereo not given), the pEC50 was 5.47.

For `Cc1cc(N2CCOCC2)nc(NCc2ccccc2)n1`, the EC50 result was “inactive”.

Take `CC(C)Cn1c(N)c(C(=O)CSc2ccc3c(c2)OCCO3)c(=O)n(C)c1=O`: the EC50 entry was “inactive”.

On to `CC(=O)Oc1ccc(N2C(=O)C3C(C2=O)C2(C)C=CC3(C)O2)cc1` (stereo not given), for which the EC50 result is “inactive”.

On to `CC1=C(C(=O)OCc2ccc3c(c2)OCO3)C(c2ccc(F)cc2)NC(=O)N1` (stereo not given), for which the pEC50 is 6.20.

Turning to `O=C(C1CCN(S(=O)(=O)c2cccc3cccnc23)CC1)N1CCN(c2ccc(Cl)cc2)CC1`, the EC50 entry is “inactive”.

Turning to `CCCCc1ccc(C2C(C#N)=C(N)SC(N)=C2C#N)s1`, the EC50 result was “inactive”.

With `CCC(=NC(C)c1ccccc1)c1c(O)n(C)c(=O)n(C)c1=O` (stereo not given), the EC50 entry was “inactive”.

In the case of `Cc1nn(Cc2ccc(Cl)c(Cl)c2)c(C)c1NC(=O)c1cc(C2CC2)on1`, the EC50 entry was “inactive”.

Take `CCC(=NCc1ccc2c(c1)OCO2)c1c(O)n(C2CCCCC2)c(=O)[nH]c1=O`: the pEC50 is 5.06.

`CC(=O)c1ccc(NC(=O)N2CCN(c3cccc(Cl)c3)CC2)cc1`: the pEC50 is 5.01.

As for `Cc1ccc2[nH]c3c(N4CCCCCC4)ncnc3c2c1`, the pEC50 was 5.38.

On to `NC(=O)c1ccc(OCC(F)(F)C(F)(F)C(F)(F)C(F)(F)C(F)(F)C(F)F)cc1`, for which the pEC50 was 5.10.

Turning to `CCOc1ccc(C(C)=O)cc1N1C(=O)C2C3C=CC(O3)C2C1=O` (stereo not given), the EC50 entry was “inactive”.

On to `C/C(N)=C(/C#N)C(=O)CSc1nnc(SCc2ccc(Cl)cc2)s1`, for which the negative-log EC50 (pEC50) was 5.02.

On to `COc1ccc(/C=N/O)cc1COc1ccc(NC(C)=O)cc1`, for which the EC50 was > 95 µM (inactive).

As for `CCOC(=O)C1CCN(c2ncnc3c2oc2ccccc23)CC1`, the EC50 result was “inactive”.

Turning to `CCOC(=O)c1cccc2c1-c1ccccc1/C2=N/O`, the EC50 entry was “inactive”.

Regarding `CCC(=NCCOc1ccc(Cl)cc1)c1c(O)n(C)c(=O)n(C)c1=O`, the pEC50 was 5.27.

As to `C/C(N)=C(/C#N)C(=O)CSc1nc2cc(Cl)ccc2s1`, the EC50 result is “inactive”.

In the case of `COc1ccc(N=c2scc(-c3ccc(S(=O)(=O)N4CCOCC4)cc3)n2CCCO)cc1`, the EC50 entry is “inactive”.

Take `Cc1ccc(NC(=O)c2cc(-c3ccco3)on2)cc1C`: the pEC50 is 5.30.

With `COc1ccc(N2C(=O)CC(Sc3ncn[nH]3)C2=O)c(OC)c1` (stereo not given), the EC50 entry is “inactive”.

As to `COc1ccc(/C(O)=C2/C(=O)C(=O)N(CC3CCCO3)C2c2cccc(OC)c2)cc1` (stereo not given), the EC50 is > 95 µM (inactive).

For `Cn1nc(CC(=O)Nc2ccc3c(c2)OCCO3)c2ccccc2c1=O`, the pEC50 is 5.23.

On to `FC(F)(F)c1ccc(N2CCN(c3cc(-c4ccccc4)nc4ncnn34)CC2)nc1`, for which the EC50 result is “inactive”.

Consider `CC1(C)CC(=O)C(C=Nc2ccc3[nH]ncc3c2)=C(O)C1`, for which the pEC50 is 5.22.

Turning to `CNc1oc(-c2ccc(OCc3ccccc3)cc2)nc1C#N`, the pEC50 is 5.49.

Turning to `CC(C)c1ccc2oc(-c3cc(N)ccc3O)nc2c1`, the pEC50 was 5.03.

As for `O=C1C2C3C=CC(CO)(O3)C2C(=O)N1c1ccccc1-c1ccccc1` (stereo not given), the pEC50 was 5.17.

The pEC50 is the negative decadic logarithm of the EC50, by convention in mol/L. The term EC50 denotes the concentration at which the effect is half-maximal.
